This note sets out measurements from patent US8067408B2, “Dual pharmacophores—PDE4-muscarinic antagonistics” (priority 2008, dated 2011).

Counter-ions that a name gives are not always drawn.

The term melting point denotes the temperature of the solid-liquid transition.

`O=C(O)c1cccc(C(=O)NCc2ccc(F)c(-c3cccc(CO)c3)c2)c1`: the melting point lay within 169 to 171 °C.

Compound `CCc1nc2c(cnn2CC)c(NC2CCOCC2)c1CNC(=O)c1cccc(C(=O)NCc2ccc(F)c(-c3cccc(CN4C[C@@H]5C[C@H]4CN5C(=O)OC(C)(C)C)c3)c2)c1` returned a melting point of 119 to 123 °C.

As for `CCc1nc2c(cnn2CC)c(NC2CCOCC2)c1CNC(=O)c1cccc(C(=O)O)c1`, the melting point was 207 to 209 °C.

The compound `CCc1nc2c(cnn2CC)c(NC2CCOCC2)c1CNC(=O)c1cc(C)cc(C(=O)NCc2cccc(-c3cccc(C=O)c3)c2)c1` displayed a melting point of 109 to 112 °C.

In the case of `CCc1nc2c(cnn2CC)c(NC2CCOCC2)c1CNC(=O)c1cc(C)cc(C(=O)NCc2ccc(F)c(-c3cccc(C=O)c3)c2)c1`, the melting point was 107 to 110 °C.

Take `CCc1nc2c(cnn2CC)c(NC2CCOCC2)c1CNC(=O)c1cc(C)cc(C(=O)NCc2ccc(Cl)c(Br)c2)c1`: the melting point was 212 to 214 °C.

Turning to `CCc1nc2c(cnn2CC)c(NC2CCOCC2)c1CNC(=O)c1cc(C)cc(C(=O)NCc2ccc(Cl)c(-c3cccc(C=O)c3)c2)c1`, the melting point lay in the range of 153 to 156 °C.

`CCc1nc2c(cnn2CC)c(NC2CCOCC2)c1CNC(=O)c1cc(C)cc(C(=O)NCc2ccc(OC)c(-c3cccc(C=O)c3)c2)c1` came in with a melting point of 117 to 119 °C.

As for `CCc1nc2c(cnn2CC)c(NC2CCOCC2)c1CNC(=O)c1cc(C)cc(C(=O)NCc2ccc(C)c(Br)c2)c1`, the melting point is 117 to 119 °C.

The compound `CCc1nc2c(cnn2CC)c(NC2CCOCC2)c1CNC(=O)c1cc(C)cc(C(=O)NCc2ccc(C)c(-c3cccc(C=O)c3)c2)c1` showed a melting point of 117 to 120 °C.

`CCc1nc2c(cnn2CC)c(NC2CCOCC2)c1CNC(=O)c1cccc(C(=O)NCc2ccc(F)c(-c3cccc(CN4CCN[C@@H](C)C4)c3)c2)c1` (as salt: TFA) [Example 205, N-{[1,6-Diethyl-4-(tetrahydro-2H-pyran-4-ylamino)-1H-pyrazolo[3,4-b]pyridin-5-yl]methyl}-N′-[(6-fluoro-3′-{[(3S)-3-methyl-1-piperazinyl]methyl}-3-biphenylyl)methyl]-1,3-benzenedicarboxamide] had a melting point of 100 to 113 °C.

In turn, `CCc1nc2c(cnn2CC)c(NC2CCOCC2)c1CNC(=O)c1cccc(C(=O)NCc2ccc(C)c(-c3cccc(CN4CCNCC4)c3)c2)c1` [Example 192, N-{[1,6-Diethyl-4-(tetrahydro-2H-pyran-4-ylamino)-1H-pyrazolo[3,4-b]pyridin-5-yl]methyl}-N′-{[6-methyl-3′-(1-piperazinylmethyl)-3-biphenylyl]methyl}-1,3-benzenedicarboxamide] registered a melting point of 135 to 138 °C.

`CCc1nc2c(cnn2CC)c(NC2CCOCC2)c1CNC(=O)c1cccc(C(=O)NCc2ccc(C)c(-c3cccc(CN4CCN(C)CC4)c3)c2)c1` [Example 193, N-{[1,6-Diethyl-4-(tetrahydro-2H-pyran-4-ylamino)-1H-pyrazolo[3,4-b]pyridin-5-yl]methyl}-N′-({6-methyl-3′-[(4-methyl-1-piperazinyl)methyl]-3-biphenylyl}methyl)-1,3-benzenedicarboxamide]: the melting point was 121 to 124 °C.

In the case of `CCc1nc2c(cnn2CC)c(NC2CCOCC2)c1CNC(=O)c1cccc(C(=O)NCc2ccc(OC)c(-c3cccc(CN4C[C@@H]5C[C@H]4CN5)c3)c2)c1` [Example 194, N-{[3′-[(1S,4S)-2,5-Diazabicyclo [2.2.1]hept-2-ylmethyl]-6-(methyloxy)-3-biphenylyl]methyl}-N′-{[1,6-diethyl-4-(tetrahydro-2H-pyran-4-ylamino)-1H-pyrazolo[3,4-b]pyridin-5-yl]methyl}-1,3-benzenedicarboxamide], the melting point is 129 to 131 °C.

For the compound `CCc1nc2c(cnn2CC)c(NC2CCOCC2)c1CNC(=O)c1cccc(C(=O)NCc2ccc(OC)c(-c3cccc(CN4CCCNCC4)c3)c2)c1` [Example 195, N-{[1,6-Diethyl-4-(tetrahydro-2H-pyran-4-ylamino)-1H-pyrazolo[3,4-b]pyridin-5-yl]methyl}-N′-{[3′-(hexahydro-1H-1,4-diazepin-1-ylmethyl)-6-(methyloxy)-3-biphenylyl]methyl}-1,3-benzenedicarboxamide], the melting point lay in the range of 143 to 147 °C.

The compound `CCc1nc2c(cnn2CC)c(NC2CCOCC2)c1CNC(=O)c1cccc(C(=O)NCc2ccc(C)c(-c3cccc(CN4CCCNCC4)c3)c2)c1` [Example 196, N-{[1,6-Diethyl-4-(tetrahydro-2H-pyran-4-ylamino)-1H-pyrazolo[3,4-b]pyridin-5-yl]methyl}-N′-{[3′-(hexahydro-1H-1,4-diazepin-1-ylmethyl)-6-methyl-3-biphenylyl]methyl}-1,3-benzenedicarboxamide] showed a melting point of 118 to 120 °C.

Compound `CCc1nc2c(cnn2CC)c(NC2CCOCC2)c1CNC(=O)c1cccc(C(=O)NCc2ccc(C)c(-c3cccc(CN4C[C@@H]5C[C@H]4CN5)c3)c2)c1` [Example 197, N-({3′-[(1S,4S)-2,5-Diazabicyclo [2.2.1]hept-2-ylmethyl]-6-methyl-3-biphenylyl}methyl)-N′-{[1,6-diethyl-4-(tetrahydro-2H-pyran-4-ylamino)-1H-pyrazolo[3,4-b]pyridin-5-yl]methyl}-1,3-benzenedicarboxamide] gave a melting point of 138 to 140 °C.

With `CCc1nc2c(cnn2CC)c(NC2CCOCC2)c1CNC(=O)c1cccc(C(=O)NCc2ccc(F)c(-c3cccc(CN4C[C@H](C)NC[C@H]4C)c3)c2)c1` [Example 198, N-{[1,6-Diethyl-4-(tetrahydro-2H-pyran-4-ylamino)-1H-pyrazolo[3,4-b]pyridin-5-yl]methyl}-N′-[(3′-{[(2R,5S)-2,5-dimethyl-1-piperazinyl]methyl}-6-fluoro-3-biphenylyl)methyl]-1,3-benzenedicarboxamide], the melting point was 187 to 190 °C (dec.).

Consider `CCc1nc2c(cnn2CC)c(NC2CCOCC2)c1CNC(=O)c1cccc(C(=O)NCc2ccc(F)c(-c3cccc(CN4CCCCC4)c3)c2)c1` [Example 199, N-{[1,6-Diethyl-4-(tetrahydro-2H-pyran-4-ylamino)-1H-pyrazolo[3,4-b]pyridin-5-yl]methyl}-N′-{[6-fluoro-3′-(1-piperidinylmethyl)-3-biphenylyl]methyl}-1,3-benzenedicarboxamide], for which the melting point was 128 to 131 °C.

The compound `CCc1nc2c(cnn2CC)c(NC2CCOCC2)c1CNC(=O)c1cccc(C(=O)NCc2ccc(F)c(-c3cccc(CN4CCN(C)CC4)c3)c2)c1` [Example 200, N-{[1,6-Diethyl-4-(tetrahydro-2H-pyran-4-ylamino)-1H-pyrazolo[3,4-b]pyridin-5-yl]methyl}-AN-({6-fluoro-3′-[(4-methyl-1-piperazinyl)methyl]-3-biphenylyl}methyl)-1,3-benzenedicarboxamide] had a melting point of 169 to 173 °C.

In turn, `CCc1nc2c(cnn2CC)c(NC2CCOCC2)c1CNC(=O)c1cccc(C(=O)NCc2ccc(F)c(-c3cccc(CN4CCNC(=O)C4)c3)c2)c1` [Example 201, N-{[1,6-Diethyl-4-(tetrahydro-2H-pyran-4-ylamino)-1H-pyrazolo[3,4-b]pyridin-5-yl]methyl}-N′-({6-fluoro-3′-[(3-oxo-1-piperazinyl)methyl]-3-biphenylyl}methyl)-1,3-benzenedicarboxamide] returned a melting point of 147 to 150 °C.

`CCc1nc2c(cnn2CC)c(NC2CCOCC2)c1CNC(=O)c1cccc(C(=O)NCc2ccc(F)c(-c3cccc(CN4CCN(CC)CC4)c3)c2)c1` [Example 202, N-{[1,6-Diethyl-4-(tetrahydro-2H-pyran-4-ylamino)-1H-pyrazolo[3,4-b]pyridin-5-yl]methyl}-N′-({3′-[(4-ethyl-1-piperazinyl)methyl]-6-fluoro-3-biphenylyl}methyl)-1,3-benzenedicarboxamide] registered a melting point of 155 to 158 °C.

As to `CCc1nc2c(cnn2CC)c(NC2CCOCC2)c1CNC(=O)c1cccc(C(=O)NCc2ccc(F)c(-c3cccc(CN4CCN(C(C)C)CC4)c3)c2)c1` [Example 203, N-{[1,6-Diethyl-4-(tetrahydro-2H-pyran-4-ylamino)-1H-pyrazolo[3,4-b]pyridin-5-yl]methyl}-N′-[(6-fluoro-3′-{[4-(1-methylethyl)-1-piperazinyl]methyl}-3-biphenylyl)methyl]-1,3-benzenedicarboxamide], the melting point is 165 to 169 °C.

Regarding `CCc1nc2c(cnn2CC)c(NC2CCOCC2)c1CNC(=O)c1cccc(C(=O)NCc2ccc(F)c(-c3cccc(CN4CCCNCC4)c3)c2)c1` [Example 204, N-{[1,6-Diethyl-4-(tetrahydro-2H-pyran-4-ylamino)-1H-pyrazolo[3,4-b]pyridin-5-yl]methyl}-N′-{[6-fluoro-3′-(hexahydro-1H-1,4-diazepin-1-ylmethyl)-3-biphenylyl]methyl}-1,3-benzenedicarboxamide], the melting point was 145 to 148 °C.

The compound `CCc1nc2c(cnn2CC)c(NC2CCOCC2)c1CNC(=O)c1cccc(C(=O)NCc2ccc(F)c(-c3cccc(CN(C)CCN(C)C)c3)c2)c1` [Example 206, N-{[1,6-Diethyl-4-(tetrahydro-2H-pyran-4-ylamino)-1H-pyrazolo[3,4-b]pyridin-5-yl]methyl}-N′-[(3′-{[[2-(dimethylamino)-ethyl](methyl)amino]methyl}-6-fluoro-3-biphenylyl)methyl]-1,3-benzenedicarboxamide] came in with a melting point of 126 to 129 °C.

In turn, `CCc1nc2c(cnn2CC)c(NC2CCOCC2)c1CNC(=O)c1cccc(C(=O)NCc2ccc(F)c(-c3cccc(CN4C[C@@H]5C[C@H]4CN5)c3)c2)c1` [Example 207, N-({3′-[(1S,4S)-2,5-Diazabicyclo [2.2.1]hept-2-ylmethyl]-6-fluoro-3-biphenylyl}methyl)-N′-{[1,6-diethyl-4-(tetrahydro-2H-pyran-4-ylamino)-1H-pyrazolo[3,4-b]pyridin-5-yl]methyl}-1,3-benzenedicarboxamide] gave a melting point of 129 to 133 °C.

Compound `CCc1nc2c(cnn2CC)c(NC2CCOCC2)c1CNC(=O)c1cccc(C(=O)NCc2ccc(OC)c(-c3cccc(CN4CCNCC4)c3)c2)c1` [Example 209, N-{[1,6-Diethyl-4-(tetrahydro-2H-pyran-4-ylamino)-1H-pyrazolo[3,4-b]pyridin-5-yl]methyl}-N′-{[6-(methyloxy)-3′-(1-piperazinylmethyl)-3-biphenylyl]methyl}-1,3-benzenedicarboxamide] had a melting point of 138 to 140 °C.
